# Laboratory results published in article PMC11627468, “Novel enzyme‐resistant pancreatic polypeptide analogs evoke pancreatic beta‐cell rest, enhance islet cell turnover, and inhibit food intake in mice” (Biofactors (Oxford, England), 2024).
# Legend:
# [1] = biological target: T1, purified human DPP‐4 enzyme (Homo sapiens, UniProt P27487); assay: In vitro DPP‐4 degradation; type: in vitro ADME
# T1 construct: purchased Sigma-Aldrich
# Method: PP peptides (50 μg) were incubated at 37°C for 0–8 h with 5 μL of purified human DPP‐4 enzyme (0.01 U/L, Sigma‐Aldrich, Gillingham, UK). Degradation reactions were terminated via the addition of 10 μL 10% (v/v) trifluoroacetic acid/water solution. Reaction mixes were separated by reverse phase rp‐HPLC using a Phenomenex C‐18 analytical column (250 × 4.6 mm^2) with UV absorbance detection at 214 nm (ThermoQuest SpectraSystem UV2000 detector). HPLC peaks of interest were collected and analyzed by MALDI‐TOF MS on a Perseptive Biosystems Voyager‐DE Biospectrometry (Hertfordshire, UK).
# [2] = biological target: T2, NPY4R (Rattus norvegicus, UniProt Q63447); assay: Receptor specificity: beta‐cell proliferation with NPY4R antagonist (S)‐VU0637120; type: cell-based; conditions: peptide 10^−6 M co‐incubated with NPY4R antagonist (S)‐VU0637120 10^−5 M; Ki‐67; n = 3
# T2 construct: endogenous in cells; host or cells: BRIN-BD11 beta cells
# T2 sequence (Q63447 whole entry): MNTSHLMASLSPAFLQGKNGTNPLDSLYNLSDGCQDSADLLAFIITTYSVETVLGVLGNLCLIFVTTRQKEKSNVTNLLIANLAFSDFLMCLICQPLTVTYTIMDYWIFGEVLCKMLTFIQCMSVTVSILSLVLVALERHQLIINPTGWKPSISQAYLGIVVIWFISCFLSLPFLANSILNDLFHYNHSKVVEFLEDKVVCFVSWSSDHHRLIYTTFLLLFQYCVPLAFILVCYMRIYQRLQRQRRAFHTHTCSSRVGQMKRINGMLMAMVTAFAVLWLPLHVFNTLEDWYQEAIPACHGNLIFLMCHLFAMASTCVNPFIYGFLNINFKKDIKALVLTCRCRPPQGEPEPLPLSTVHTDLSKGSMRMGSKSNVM
# Method: To assess the effects of PP and related peptides (10^−8 and 10^−6 M) on beta‐cell proliferation and apoptosis, BRIN‐BD11 beta‐cells were seeded onto sterilized, clear‐glass coverslips (16 mm diameter) and placed in 12‐well plates (Falcon Ltd) at a density of 40,000 cells per well and cultured for 18 h. Media control (11.1 mM glucose), GLP‐1 (10^−8 and 10^−6 M), and a cytokine cocktail mix (IL‐1β [100 U/mL], IFNγ [20 U/mL], TNFα [200 U/mL], Sigma Aldrich, UK) were employed as controls, as appropriate. Cells were then rinsed with PBS and fixed using 4% paraformaldehyde. After antigen retrieval with sodium citrate buffer at 95°C for 20 min, blocking was performed using 2% bovine serum albumin (BSA) for 45 min. For proliferation studies, the slips were then incubated at 37°C with rabbit anti‐Ki‐67 primary antibody (Abcam, ab15580), and subsequently with Alexa Fluor® 488 secondary antibody. Coverslips were mounted onto polylysine‐coated microscope slides using a 50:50 glycerol:PBS solution and stored at 4°C until required for analysis. To assess the ability of PP peptides to protect against cytokine‐induced apoptosis, cells were seeded, washed, and fixed as above, with the exception that the media was supplemented with the cytokine mix. […] Proliferation/TUNEL positive frequency was determined using the cell‐counter function on ImageJ Software and expressed as % of total cells analyzed.
# [3] = system: BRIN‐BD11 beta‐cells; assay: Beta‐cell proliferation (Ki‐67 staining); type: cell-based; conditions: peptide 10^−6 M, versus control cultures, n = 3
# Method: To assess the effects of PP and related peptides (10^−8 and 10^−6 M) on beta‐cell proliferation and apoptosis, BRIN‐BD11 beta‐cells were seeded onto sterilized, clear‐glass coverslips (16 mm diameter) and placed in 12‐well plates (Falcon Ltd) at a density of 40,000 cells per well and cultured for 18 h. Media control (11.1 mM glucose), GLP‐1 (10^−8 and 10^−6 M), and a cytokine cocktail mix (IL‐1β [100 U/mL], IFNγ [20 U/mL], TNFα [200 U/mL], Sigma Aldrich, UK) were employed as controls, as appropriate. Cells were then rinsed with PBS and fixed using 4% paraformaldehyde. After antigen retrieval with sodium citrate buffer at 95°C for 20 min, blocking was performed using 2% bovine serum albumin (BSA) for 45 min. For proliferation studies, the slips were then incubated at 37°C with rabbit anti‐Ki‐67 primary antibody (Abcam, ab15580), and subsequently with Alexa Fluor® 488 secondary antibody. Coverslips were mounted onto polylysine‐coated microscope slides using a 50:50 glycerol:PBS solution and stored at 4°C until required for analysis. To assess the ability of PP peptides to protect against cytokine‐induced apoptosis, cells were seeded, washed, and fixed as above, with the exception that the media was supplemented with the cytokine mix. The slips were then incubated at 37°C with TUNEL reaction mix for 60 min (Roche Diagnostics, Germany), and mounted onto microscope slides. To assess receptor specificity, co‐incubation of PP peptides with the well characterized NPY4R antagonist, (S)‐VU0637120,[24] at 10^−5 M was employed for beta‐cell proliferation experiments, conducted as detailed above. All slides were viewed using a fluorescent microscope (Olympus System Microscope, model BX51; Southend‐on‐Sea, UK) and photographed by DP70 camera adapter system. Proliferation/TUNEL positive frequency was determined using the cell‐counter function on ImageJ Software and expressed as % of total cells analyzed.
# [4] = system: C57BL/6 mice; assay: Glucose tolerance in mice; type: in vivo; conditions: peptide 25 nmol/kg i.p. conjointly with glucose 18 mmol/kg, overnight fasted mice; n = 6
# Method: Acute in vivo studies were conducted in groups (n = 6) of 4‐month‐old male C57BL/6 mice (Envigo, Huntington, UK). All mice were maintained on standard rodent chow (10% fat, 30% protein, and 60% carbohydrate; Trouw Nutrition, Northwich, UK), and drinking water provided ad libitum. Mice were housed individually and kept in a temperature‐controlled environment (22 ± 2°C), with a 12‐h light/dark cycle. Experiments were carried out in accordance with the UK Animal Scientific Procedures Act 1986 as well as being approved by Ulster University Animal Ethics Review Committee (AWERB) committee and protected by the UK Home Office Animal project license number PPL2902, approved on April 26, 2021. Acute effects of test peptides on food intake were tested in overnight (16 h) fasted mice. Briefly, fasted mice were administered an intraperitoneal (i.p.) injection of saline vehicle (0.9% (w/v) NaCl) alone or in combination with test peptides (each at 25, 75, or 200 nmol/kg bw) and cumulative food intake measured at regular intervals, to assess the pharmacodynamic profile of the test peptides. For food intake studies, mice were provided with preweighed rodent maintenance diet in their food hopper at t = 0 min, which was then re‐weighed at each timepoint with all due care taken to account for any wastage or crumbling of the food pellets. In this regard, the investigator was present at all times during the 180‐min test period to ensure accuracy and consistency in all measurements. Furthermore, effects of PP or related peptides (25 nmol/kg bw) on glucose homeostasis and insulin secretion were evaluated in overnight fasted mice following i.p. injection of glucose alone (18 mmol/kg bw) or in combination with PP peptides (each at 25 nmol/kg bw). […] Blood glucose was measured immediately using a hand‐held Ascencia Contour blood glucose meter (Bayer Healthcare, Newbury, Berkshire, UK). […]
# T1 sequence (P27487 whole entry): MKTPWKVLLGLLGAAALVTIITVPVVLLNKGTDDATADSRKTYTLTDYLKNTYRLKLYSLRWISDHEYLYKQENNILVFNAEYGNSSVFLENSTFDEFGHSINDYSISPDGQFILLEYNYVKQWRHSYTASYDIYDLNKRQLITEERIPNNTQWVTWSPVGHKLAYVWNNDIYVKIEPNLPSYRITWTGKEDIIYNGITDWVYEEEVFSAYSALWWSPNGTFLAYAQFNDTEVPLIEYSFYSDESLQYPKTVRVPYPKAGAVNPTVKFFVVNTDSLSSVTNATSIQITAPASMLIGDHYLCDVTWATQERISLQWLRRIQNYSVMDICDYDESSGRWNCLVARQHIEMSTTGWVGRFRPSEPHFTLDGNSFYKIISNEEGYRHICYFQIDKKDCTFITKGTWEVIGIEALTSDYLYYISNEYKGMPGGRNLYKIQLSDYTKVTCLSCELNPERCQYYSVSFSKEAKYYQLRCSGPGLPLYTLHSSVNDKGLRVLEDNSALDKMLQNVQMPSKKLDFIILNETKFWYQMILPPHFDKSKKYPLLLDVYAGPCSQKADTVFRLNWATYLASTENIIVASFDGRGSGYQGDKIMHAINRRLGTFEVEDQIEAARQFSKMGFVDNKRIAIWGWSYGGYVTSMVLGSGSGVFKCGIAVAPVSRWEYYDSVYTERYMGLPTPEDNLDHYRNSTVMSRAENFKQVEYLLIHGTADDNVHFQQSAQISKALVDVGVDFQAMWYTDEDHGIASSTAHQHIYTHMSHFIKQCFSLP
structure (smiles),measurement,setting,value
"CC[C@H](C)[C@H](NC(=O)[C@H](Cc1ccc(O)cc1)NC(=O)[C@H](CCCNC(=N)N)NC(=O)[C@H](CCCNC(=N)N)NC(=O)[C@H](CC(C)C)NC(=O)[C@H](CC(=O)O)NC(=O)[C@H](C)NC(=O)[C@H](C)NC(=O)[C@H](Cc1ccc(O)cc1)NC(=O)[C@H](CCC(N)=O)NC(=O)[C@H](C)NC(=O)[C@H](CCSC)NC(=O)[C@H](CCC(N)=O)NC(=O)[C@H](CCC(=O)O)NC(=O)[C@@H]1CCCN1C(=O)[C@@H](NC(=O)[C@H](C)NC(=O)[C@H](CC(N)=O)NC(=O)[C@H](CC(=O)O)NC(=O)CNC(=O)[C@@H]1CCCN1C(=O)[C@H](Cc1ccc(O)cc1)NC(=O)[C@@H](NC(=O)[C@@H]1CCCN1C(=O)[C@H](CCC(=O)O)NC(=O)[C@H](CC(C)C)NC(=O)[C@@H]1CCCN1C(=O)[C@H](C)N)C(C)C)[C@@H](C)O)C(=O)N[C@@H](CC(N)=O)C(=O)N[C@@H](CCSC)C(=O)N[C@@H](CC(C)C)C(=O)N[C@H](C(=O)N[C@@H](CCCNC(=N)N)C(=O)N1CCC[C@H]1C(=O)N[C@@H](CCCNC(=N)N)C(=O)N[C@@H](Cc1ccc(O)cc1)C(N)=O)[C@@H](C)O [PP, Pancreatic polypeptide]","DPP‐4 mediated degradation, outcome in words",[1],N‐terminal di‐peptide cleavage to yield PP(3–36)
same,dependence of beta‐cell proliferative benefit on NPY4R signaling,[2],dependent on NPY4R signaling
same,BRIN‐BD11 cell proliferation,[3],significantly (p < 0.001) enhanced
same,glucose homeostasis (blood glucose),[4],"Neither native PP, nor related PP analogs, exerted any effect"
